Experimental data from article PMC8113538, “Acute toxicity analysis of an inhibitor of BCL2, Disarib, in rats” (Scientific Reports, 2021).

What was measured:
[1] = test system: interaction of BCL2 with BAK; parameters: method as in PMID 28223017; conditions: cited from earlier work
[2] = In vitro stability of Disarib in plasma (HPLC); type: in vitro ADME, rats; conditions: 80% plasma diluted in PBS; 37 °C; 0, 2, 4, 6 h; HPLC peak
Method: The stability of Disarib (100 μM) was investigated in phosphate-buffered saline (PBS) and in plasma. The blood was collected from rats by heart puncture, and plasma was separated for the study. After the addition of Disarib into plasma or PBS, the mixture was incubated at 37 °C in water bath[25],[26]. The samples were then collected at different time points, 0, 2, 4, and 6 h, mixed manually with acetonitrile (1:1), and analyzed on HPLC[27],[40]. The values plotted represent the mean of three independent experiments. The samples were analyzed by HPLC using the Shimadzu HPLC system. LC was carried out on the C18 analytical column. The mobile phase was the gradient of acetonitrile and water. Disarib specific peaks were detected at 232 nm. The injection volume was 20 μl, and the flow rate was 1.2 ml/min. The standard curves were constructed by plotting the peak area vs. concentration of Disarib[40].

[3] = Disarib solubility assay (shake flask method, HPLC); type: physicochemical; conditions: Disarib 100 µM
Method: The solubility of Disarib was determined by the shake flask method, as described earlier. Briefly, Disarib (100 μM) was dissolved in various solvents such as alcohol (40, 60, 80 and 100%), acid (0.1, 0.3 and 0.6 N HCl) and DMSO (25, 50, 75 and 100%). Further, solubility of Disarib was also tested in a combination of alcohol (40, 60%) and acid (0.1, 0.3 N). The suspension was vortexed 2–3 min and kept in a water bath for 5 min, as described before[25],[26],[39]. In each case, the samples were diluted in acetonitrile and analyzed using HPLC in acetonitrile:water gradient[27],[40]. The area under the curve (AUC) was determined by using the software LabSolutions, Shimadzu (Japan). The values used for plotting in GraphPad Prism (ver 5.1) softwarewere the mean of three independent experiments. The samples were analyzed by HPLC using the Shimadzu HPLC system. LC was carried out on the C18 analytical column. The mobile phase was the gradient of acetonitrile and water. Disarib specific peaks were detected at 232 nm. The injection volume was 20 μl, and the flow rate was 1.2 ml/min. The standard curves were constructed by plotting the peak area vs. concentration of Disarib[40].

[4] = parameters: method as in PMID 27693384; conditions: mice, cited from earlier work
bone marrow cells = test: Micronucleus assay for genotoxicity; type: in vivo; conditions: Wistar rats, 50 mg/kg b. wt. oral; 24, 48 and 72 h post-treatment
Method: To evaluate genotoxicity caused by Disarib at the effective dose, micronucleus assay was performed[32]–[34]. Wistar rats (n = 6) were orally administered with Disarib (50 mg/kg), and bone marrow cells were collected after 24, 48, and 72 h post-treatment. Bone marrow cells were flushed out in 1X PBS containing EDTA, centrifuged, fixed (2% PFA) and stained with DAPI. Cells exposed to γ-irradiation (4 Gy) served as a positive control for the assay and were imaged using a fluorescence microscope (Nikon, Tokyo, Japan). At least 500 cells were counted from each animal for each time point, and data was plotted and represented as a bar diagram.

mice = conditions: cited from earlier work
Wistar rats [5] = test: Haematological analysis after single oral dose; type: in vivo, Wistar rats (Rattus norvegicus); conditions: for platelet count vs control / Eosinophils / MCH (mean corpuscular haemoglobin) / MCHC (mean corpuscular haemoglobin concentration) / MCV (mean cell volume) / Monocytes / PCV (packed cell volume): Wistar rats
Method: After 14 days of Disarib treatment, two animals from each group were sacrificed using CO2 asphyxiation, and blood was collected in EDTA-coated vials by heart puncture. Red blood cells (RBC), white blood cells (WBC), platelet counts (PLT), packed cell volume (PCV), hemoglobin (HGB), mean cell volume (MCV), mean corpuscular hemoglobin (MCH), mean corpuscular hemoglobin concentration (MCHC), lymphocytes, neutrophils, eosinophils and monocytes were analyzed as described before[28],[31],[43]. Analysis of blood samples was performed at Rohana Veterinary Diagnostic Lab, Bangalore, India.

Wistar rats [6] = test: Serum biochemistry (liver and kidney function); type: in vivo, Wistar rats (Rattus norvegicus); conditions: serum day 14
Method: After 14 days of Disarib administration, two animals were sacrificed using CO2 asphyxiation from each group, and blood was collected in tubes without using anticoagulant and centrifuged (900×g, 10 min). Serum glutamic pyruvic transaminase (SGPT), serum glutamic oxaloacetic transaminase (SGOT), alkaline phosphatase (ALP), albumin, total protein, bilirubin, blood urea nitrogen (BUN), creatinine, uric acid, and phosphorous were analyzed as described earlier[28],[29]. Analysis of serum samples was performed at Rohana Veterinary Diagnostic Lab, Bangalore, India.

[7] = 100 mg/kg oral, day 14, animal a
[8] = 100 mg/kg oral, day 14, animal b
[9] = 1000 mg/kg oral, day 14, animal a
[10] = 1000 mg/kg oral, day 14, animal b
[11] = 2000 mg/kg oral, day 14, animal a
[12] = 2000 mg/kg oral, day 14, animal b
[13] = Wistar rats, 100, 1000, 2000 mg/kg oral, day 14
[14] = Wistar rats, 100, 1000, 2000 mg/kg oral

O=C1Nc2ccccc2/C1=C/c1c(-c2ccc(Br)cc2)nc2sc(Cc3ccc(Cl)cc3)nn12 [Disarib]
disruption of BCL2-BAK interaction [1]: disruption of the interaction of BCL2 with its proapoptotic partner BAK | stability in plasma [2]: gradually decreased in plasma with increasing time | solubility in HCl ([3]; 0.1, 0.3 and 0.6 N HCl tested): soluble only in higher acidic conditions such as 0.3 N HCl | DMSO concentration giving complete dissolution ([3]; HPLC at 232 nm): > 75% | solubility in alcohol in combination with HCl ([3]; alcohol 40, 60% with HCl): soluble in 40% alcohol and 0.3 and 0.6 N HCl | time at which maximum circulating concentration (Cmax) was obtained ([4]; 10 mg/kg intraperitoneal): 30 min | clearance rate (CL) [4]: 6.3 mL/min/kg | t1/2 [4]: 2.3 h | genotoxicity (micronucleus formation in bone marrow cells) (bone marrow cells): no DNA damage induced by Disarib | visible toxicity (mice; highest dose 2000 mg/kg oral): did not cause any visible toxicity | LD50 (mice; oral route): > 2000 mg/kg | platelet count (mice; oral, even at the highest dose): did not affect the platelet count | platelet count vs control (Wistar rats [5]; 100 mg/kg oral, day 14): such a difference was not observed | Eosinophils (Wistar rats [5]; [7]): 1.0% | MCH (mean corpuscular haemoglobin) (Wistar rats [5]; [7]): 21.9 pg | MCHC (mean corpuscular haemoglobin concentration) (Wistar rats [5]; [7]): 36.5% | MCV (mean cell volume) (Wistar rats [5]; [7]): 60.2 fL | Monocytes (Wistar rats [5]; [7]): 3.5% | PCV (packed cell volume) (Wistar rats [5]; [7]): 40.0% | Eosinophils (Wistar rats [5]; [8]): 1.2% | MCH (mean corpuscular haemoglobin) (Wistar rats [5]; [8]): 22.0 pg | MCHC (mean corpuscular haemoglobin concentration) (Wistar rats [5]; [8]): 33.0% | MCV (mean cell volume) (Wistar rats [5]; [8]): 66.6 fL | Monocytes (Wistar rats [5]; [8]): 4.2% | PCV (packed cell volume) (Wistar rats [5]; [8]): 38.4% | platelet count vs control (Wistar rats [5]; 1000 mg/kg b. wt. oral, day 14): marginal variation | Eosinophils (Wistar rats [5]; [9]): 1.0% | MCH (mean corpuscular haemoglobin) (Wistar rats [5]; [9]): 21.2 pg | MCHC (mean corpuscular haemoglobin concentration) (Wistar rats [5]; [9]): 32.3% | MCV (mean cell volume) (Wistar rats [5]; [9]): 65.7 fL | Monocytes (Wistar rats [5]; [9]): 3.2% | PCV (packed cell volume) (Wistar rats [5]; [9]): 40.2% | Eosinophils (Wistar rats [5]; [10]): 1.2% | MCH (mean corpuscular haemoglobin) (Wistar rats [5]; [10]): 21.9 pg | MCHC (mean corpuscular haemoglobin concentration) (Wistar rats [5]; [10]): 27.9% | MCV (mean cell volume) (Wistar rats [5]; [10]): 78.6 fL | Monocytes (Wistar rats [5]; [10]): 8.1% | PCV (packed cell volume) (Wistar rats [5]; [10]): 36.9% | platelet count vs control (Wistar rats [5]; 2000 mg/kg oral, day 14): such a difference was not observed | Eosinophils (Wistar rats [5]; [11]): 1.0% | MCH (mean corpuscular haemoglobin) (Wistar rats [5]; [11]): 21.2 pg | MCHC (mean corpuscular haemoglobin concentration) (Wistar rats [5]; [11]): 33.4% | MCV (mean cell volume) (Wistar rats [5]; [11]): 63.7 fL | Monocytes (Wistar rats [5]; [11]): 2.4% | PCV (packed cell volume) (Wistar rats [5]; [11]): 41.2% | Eosinophils (Wistar rats [5]; [12]): 1.1% | MCH (mean corpuscular haemoglobin) (Wistar rats [5]; [12]): 20.7 pg | MCV (mean cell volume) (Wistar rats [5]; [12]): 63.3 fL | Monocytes (Wistar rats [5]; [12]): 3.0% | PCV (packed cell volume) (Wistar rats [5]; [12]): 43.3% | HGB content vs control (Wistar rats [5]; [13]): no significant difference | WBC counts vs control (Wistar rats [5]; [13]): no significant difference | lymphocytes count vs control (Wistar rats [5]; [13]): no significant difference | neutrophils count vs control (Wistar rats [5]; [13]): no significant difference | total number of RBC vs control (Wistar rats [5]; [13]): no significant difference | hepatic function tests (SGPT, ALP, SGOT, total protein, Albumin, Bilirubin) (Wistar rats [6]; [14]): did not cause any adverse effect on liver function | renal function (BUN, Creatinine, Phosphorous, Uric acid) vs control (Wistar rats [6]; [14]): did not have any appreciable variation | ALP level vs control (Wistar rats [6]; Wistar rats, 100 and 1000 mg/kg oral, higher than control): the increase was limited and was not significant | SGOT level vs control (Wistar rats [6]; Wistar rats, maximal dose (2000 mg/kg) oral, within normal range, not significant): marginally higher
